From PubChem BioAssay (NCI) come the findings set out here.

SMILES strings stand for the structures. Values after ≈ are worked out from the molar mass of the structure shown.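 In this assay, cells in 96-well plates receive the compound at five concentrations for 48 hours. Endpoints are linearly interpolated between the surrounding concentrations. The concentration for 50% growth inhibition is given as GI50. At the TGI there is no net growth.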

Test systems include SF-295 CNS; MOLT-4 leukemia; SR leukemia; HT29 colon; RPMI-8226 leukemia; SK-MEL-2 melanoma; SF-539 CNS; K-562 leukemia; EKVX NSCLC; HCT-15 colon.
What all share (experiment): NCI-60 cell line screen, 48 h

Regarding `NCCNc1nc(N2CCCC2)c2nc(Cl)c(NCc3ccccc3)nc2n1`, the TGI with SF-295 CNS is 3.5 µM; in the test on MOLT-4 leukemia it was 4.48 µM; in the test on SR leukemia, 2.95 µM; with HT29 colon, 5.46 µM; in the test on RPMI-8226 leukemia, 3.84 µM; in the test on SK-MEL-2 melanoma, 3.37 µM. Also, the TGI worked out at 3.79 µM with SF-539 CNS, 0.182 µM in the test with K-562 leukemia, 4.36 µM in the test on EKVX NSCLC and 3.84 µM in the test on HCT-15 colon.

On to `CC1(C)CC(=O)C2=C(C1)NC(SSC1=C(C#N)C(c3ccc(F)cc3)C3=C(CC(C)(C)CC3=O)N1)=C(C#N)C2c1ccc(F)cc1` (stereo unspecified), for which the GI50 with SF-295 CNS was 150 µg/mL (≈ 229 µM); in the test with MOLT-4 leukemia, 39.1 µg/mL (≈ 59.8 µM); with SR leukemia, 48.9 µg/mL (≈ 74.6 µM); in the test with HT29 colon, 25.1 µg/mL (≈ 38.3 µM); in the test on RPMI-8226 leukemia it was 50.5 µg/mL (≈ 77.1 µM); with SF-539 CNS, 23.4 µg/mL (≈ 35.8 µM). The GI50 in the test with K-562 leukemia was 17.1 µg/mL (≈ 26.1 µM); with EKVX NSCLC, 35.5 µg/mL (≈ 54.2 µM); in the test on HCT-15 colon, 30.3 µg/mL (≈ 46.3 µM). Besides, the TGI in the test on SF-295 CNS is more than 150 µg/mL; in the test with MOLT-4 leukemia, 118 µg/mL; in the test with SR leukemia, more than 150 µg/mL; in the test on HT29 colon, 47.2 µg/mL; in the test on RPMI-8226 leukemia, 118 µg/mL; in the test on SF-539 CNS it was 43.5 µg/mL. The values for the TGI in the test with K-562 leukemia, in the test on EKVX NSCLC and with HCT-15 colon were more than 150 µg/mL, 78.5 µg/mL and 64 µg/mL, respectively.

With `N#CC(c1ccccc1)N1CCCN(C(C#N)c2ccccc2)C1c1ccccc1O` (stereo unspecified), the TGI in the test with SF-295 CNS, in the test with MOLT-4 leukemia, in the test with SR leukemia, in the test with HT29 colon, in the test with RPMI-8226 leukemia and in the test on SK-MEL-2 melanoma was more than 100 µM each time. Besides, the TGI in the test on SF-539 CNS, in the test with K-562 leukemia, in the test with EKVX NSCLC and with HCT-15 colon was more than 100 µM each time.

For the molecule `Nc1ccc2c(c1)C(=O)N(O)C2=O`, the TGI in the test on SF-295 CNS, with MOLT-4 leukemia, in the test on SR leukemia, in the test on HT29 colon, with SF-539 CNS and with K-562 leukemia was more than 100 µM throughout. Also, the TGI in the test with EKVX NSCLC and in the test with HCT-15 colon was more than 100 µM each time.

Regarding `O=C(O)C(CSC(c1ccccc1)(c1ccccc1)c1ccccc1)N=Cc1cccs1` (stereo unspecified), the TGI in the test with SF-295 CNS is more than 100 µM; in the test on MOLT-4 leukemia, more than 75.7 µM; in the test with SR leukemia, more than 100 µM; in the test with HT29 colon it was 18.6 µM; in the test with RPMI-8226 leukemia it was more than 100 µM; in the test with SK-MEL-2 melanoma, 27.4 µM. The TGI was 9.21 µM with SF-539 CNS, more than 100 µM in the test with K-562 leukemia, more than 100 µM in the test on EKVX NSCLC and more than 100 µM in the test with HCT-15 colon.

`COC(=O)C1C(C)N1C` (stereo unspecified): the TGI in the test with MOLT-4 leukemia, in the test on HT29 colon, with RPMI-8226 leukemia, in the test with SF-539 CNS, in the test with K-562 leukemia and with EKVX NSCLC was more than 100 µM in each case. For the same molecule, the TGI with HCT-15 colon was more than 100 µM.

Turning to `O=C(CCN1CC2CCC(CC2)C1)c1cccs1`, the TGI is more than 100 µM with SF-295 CNS; 18.7 µM with MOLT-4 leukemia; 24.6 µM in the test with SR leukemia; 61.6 µM in the test on HT29 colon; 12.4 µM with RPMI-8226 leukemia; 33.6 µM in the test on SK-MEL-2 melanoma. Also, the TGI in the test on SF-539 CNS came out at 39.2 µM; in the test with K-562 leukemia it was 44 µM; in the test on EKVX NSCLC, 42.6 µM; in the test with HCT-15 colon, 44.1 µM.

`CCC(C)C1NC(=O)C2CCCN2C(=O)C(CC2CO2)OC(=O)CCNC(=O)C(C)N(C)C(=O)C(C(C)C)N(C)C1=O` (stereo unspecified): the TGI in the test on HT29 colon is more than 100 µM; in the test on SK-MEL-2 melanoma, 0.0341 µM; with SF-539 CNS it was more than 100 µM; with K-562 leukemia, more than 100 µM; in the test with EKVX NSCLC it was more than 100 µM; in the test on HCT-15 colon, more than 100 µM.

`C[C@]12CC[C@@H]3c4ccccc4CC[C@H]3[C@@H]1CC[C@@H]2O`: the TGI in the test on SF-295 CNS, in the test with MOLT-4 leukemia, in the test on SR leukemia, in the test on RPMI-8226 leukemia, with SF-539 CNS and with K-562 leukemia was more than 100 µM throughout. The TGI in the test with EKVX NSCLC and in the test on HCT-15 colon was more than 100 µM throughout.

In the case of `O=S(=O)(O)c1cccc2c(N=Nc3c(O)ccc4ccccc34)cccc12`, the TGI in the test with SF-295 CNS, in the test on MOLT-4 leukemia, in the test on SR leukemia, in the test on HT29 colon, in the test on RPMI-8226 leukemia and in the test on SK-MEL-2 melanoma was more than 100 µM in each case. The TGI with K-562 leukemia, in the test on EKVX NSCLC and with HCT-15 colon was more than 100 µM in each case.

As to `[O-][N+](CCO)(CCO)c1ncnc2nc[nH]c12`, the TGI with SF-295 CNS, in the test with MOLT-4 leukemia, in the test with SR leukemia, with HT29 colon, in the test with RPMI-8226 leukemia and with SK-MEL-2 melanoma was more than 100 µM in each case. Also, the TGI with K-562 leukemia, in the test on EKVX NSCLC and in the test on HCT-15 colon was more than 100 µM in each case.

For the molecule `CN1C2CCC1C(C(O)c1ccccc1[N+](=O)[O-])C(=O)C2` (stereo unspecified), the TGI in the test with SF-295 CNS was more than 100 µM; with MOLT-4 leukemia it was more than 100 µM; in the test on HT29 colon, more than 100 µM; in the test on RPMI-8226 leukemia, more than 100 µM; with SK-MEL-2 melanoma it was more than 100 µM; in the test with SF-539 CNS it was 80.4 µM. Moreover, the TGI in the test with K-562 leukemia, in the test on EKVX NSCLC and in the test with HCT-15 colon was more than 100 µM throughout.

For `OCCOCn1cc(Cn2ncc3c(SCc4ccccc4)ncnc32)nn1`, the TGI is more than 100 µM in the test on SF-295 CNS; 48.3 µM with MOLT-4 leukemia; more than 100 µM in the test with HT29 colon; more than 100 µM with SK-MEL-2 melanoma; more than 100 µM in the test on SF-539 CNS; more than 100 µM in the test on K-562 leukemia. Besides, the TGI in the test on EKVX NSCLC and in the test on HCT-15 colon was more than 100 µM in each case.

In the case of `CC(=O)N(C)c1ccc2c(ccc[n+]2[O-])c1[N+](=O)[O-]`, the TGI in the test on SF-295 CNS, with MOLT-4 leukemia, in the test on HT29 colon, in the test with RPMI-8226 leukemia, in the test on SK-MEL-2 melanoma and in the test on SF-539 CNS was more than 100 µM in each case. The TGI in the test on K-562 leukemia, in the test with EKVX NSCLC and with HCT-15 colon was more than 100 µM throughout.
